Inconclusive results and toxic doses are left out. How the source made its calls: active means survival T/C of 150% or more; inactive means T/C below 125% in these data.
Test system: CD2F1 mice, L1210 leukemia ip, survival T/C
Assay: NCI In Vivo Anticancer Drug Screen. Data for tumor model L1210 Leukemia (intraperitoneal) in CD2F1 (CDF1) mice
Conditions: higher = longer survival
Procedure, shortened: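 Implant tumor; dose compound or vehicle; measure endpoint in both groups; report treated divided by control.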

[1] = endpoint: mean survival time, dose: 100.0 mg/kg/injection, schedule: Q01DX001 (ip), vehicle: Klucel (hydroxypropylcellulose) (HPC)
[2] = endpoint: mean survival time, dose: 200.0 mg/kg/injection, schedule: Q01DX001 (ip), vehicle: Klucel (hydroxypropylcellulose) (HPC)
[3] = endpoint: mean survival time, dose: 400.0 mg/kg/injection, schedule: Q01DX001 (ip), vehicle: Klucel (hydroxypropylcellulose) (HPC)
[4] = endpoint: mean survival time, dose: 100.0 mg/kg/injection, schedule: Q01DX009 (ip), vehicle: saline with Tween-80
[5] = endpoint: mean survival time, dose: 100.0 mg/kg/injection, schedule: Q04DX003 (ip), vehicle: saline with Tween-80
[6] = endpoint: mean survival time, dose: 200.0 mg/kg/injection, schedule: Q01DX009 (ip), vehicle: saline with Tween-80
[7] = endpoint: mean survival time, dose: 200.0 mg/kg/injection, schedule: Q04DX003 (ip), vehicle: saline with Tween-80
[8] = endpoint: mean survival time, dose: 400.0 mg/kg/injection, schedule: Q01DX009 (ip), vehicle: saline with Tween-80
[9] = endpoint: mean survival time, dose: 400.0 mg/kg/injection, schedule: Q04DX003 (ip), vehicle: saline with Tween-80
[10] = endpoint: mean survival time, dose: 50.0 mg/kg/injection, schedule: Q01DX009 (ip), vehicle: saline with Tween-80
[11] = endpoint: mean survival time, dose: 100.0 mg/kg/injection, schedule: Q04DX002 (ip), vehicle: saline with Tween-80
[12] = endpoint: mean survival time, dose: 200.0 mg/kg/injection, schedule: Q04DX002 (ip), vehicle: saline with Tween-80
[13] = endpoint: mean survival time, dose: 400.0 mg/kg/injection, schedule: Q04DX002 (ip), vehicle: saline with Tween-80
[14] = endpoint: mean survival time, dose: 200.0 mg/kg/injection, schedule: Q01DX001 (ip), vehicle: saline with Tween-80
[15] = endpoint: mean survival time, dose: 400.0 mg/kg/injection, schedule: Q01DX001 (ip), vehicle: saline with Tween-80
[16] = endpoint: mean survival time, dose: 6.25 mg/kg/injection, schedule: Q01DX009 (ip), vehicle: Klucel (hydroxypropylcellulose) (HPC)

Measured: T/C

CC1(C)OC2C(COC(=O)Oc3ccccc3)OC(n3cnc4c(=O)[nH]c(N)nc43)C2O1 (centres undefined)
inactive: [1] 92 % of control | [2] 93 % of control | [3] 92 % of control

O=C1CCc2cccc(O)c21
inactive: [4] 98 % of control | [5] 101 % of control | [6] 93 % of control | [7] 97 % of control | [8] 95 % of control | [9] 108 % of control

COc1ccc([N+](=O)[O-])cc1Br
inactive: [5] 100 % of control | [7] 102 % of control | [9] 102 % of control

O=C(C(=O)N1CC2C=CC1C2)c1c[nH]c2ccccc12 (centres undefined)
inactive: [4] 101 % of control | [5] 102 % of control | [6] 97 % of control | [7] 97 % of control | [8] 101 % of control | [9] 92 % of control

COc1cc(CC2c3cc(OC)c(OC)cc3CCN2C)c(Oc2cc3c(cc2OC)-c2c(OC)c(OC)c(OC)c4c2C(C3)N(C)CC4)cc1OC (centres undefined)
inactive: [10] 95 % of control | [4] 86 % of control

COc1ccc([Se][Se]c2ccc(OC)cc2NC(C)=O)c(NC(C)=O)c1
inactive: [10] 97 % of control | [4] 101 % of control | [5] 89 % of control | [6] 105 % of control | [7] 87 % of control

Cc1c(C=NC(=O)c2ccccc2)c2ccccc2n1C
inactive: [11] 100 % of control | [12] 108 % of control | [13] 96 % of control

CS(C)=O.CS(C)=O.[Cl][Rh]([Cl])([Cl])[Cl]
inactive: endpoint: mean survival time, dose: 12.5 mg/kg/injection, schedule: Q01DX009 (ip), vehicle: saline 111 % of control | endpoint: mean survival time, dose: 12.5 mg/kg/injection, schedule: Q04DX003 (ip), vehicle: saline 100 % of control | endpoint: mean survival time, dose: 25.0 mg/kg/injection, schedule: Q01DX009 (ip), vehicle: saline 117 % of control | endpoint: mean survival time, dose: 25.0 mg/kg/injection, schedule: Q04DX003 (ip), vehicle: saline 98 % of control | endpoint: mean survival time, dose: 50.0 mg/kg/injection, schedule: Q01DX009 (ip), vehicle: saline 119 % of control | endpoint: mean survival time, dose: 50.0 mg/kg/injection, schedule: Q04DX003 (ip), vehicle: saline 100 % of control | endpoint: mean survival time, dose: 100.0 mg/kg/injection, schedule: Q04DX003 (ip), vehicle: saline 117 % of control

O=C1CCc2ccccc2C1C(=O)CC(O)(c1ccccc1)c1ccccc1 (centres undefined)
inactive: [5] 100 % of control | [7] 102 % of control

CCOC(=O)CC(=O)c1c(C)cc(C)cc1C
inactive: [4] 89 % of control | [6] 96 % of control | [8] 107 % of control

CC(C)=CC(C)OC(=O)N(C)C (centres undefined)
inactive: [5] 97 % of control | [7] 94 % of control

COC(=O)c1ccc(C(=O)OC)cc1
inactive: [4] 95 % of control | [5] 93 % of control | [6] 98 % of control | [7] 104 % of control | [8] 95 % of control | [9] 101 % of control

C(=Nc1cccc2ccccc12)c1ccc2c(c1)OCO2
inactive: [1] 98 % of control | endpoint: mean survival time, dose: 100.0 mg/kg/injection, schedule: Q01DX009 (ip), vehicle: Klucel (hydroxypropylcellulose) (HPC) 91 % of control | [2] 93 % of control | endpoint: mean survival time, dose: 200.0 mg/kg/injection, schedule: Q01DX009 (ip), vehicle: Klucel (hydroxypropylcellulose) (HPC) 96 % of control | [3] 96 % of control | endpoint: mean survival time, dose: 400.0 mg/kg/injection, schedule: Q01DX009 (ip), vehicle: Klucel (hydroxypropylcellulose) (HPC) 96 % of control

N=C(N)N(CCS)CC(=O)O
inactive: [14] 87 % of control | [15] 90 % of control

O=C(O)CCC(=O)CC1CCCCC1
inactive: [10] 98 % of control | [4] 105 % of control | [6] 98 % of control

O=C(C[P+](c1ccccc1)(c1ccccc1)c1ccccc1)C[P+](c1ccccc1)(c1ccccc1)c1ccccc1
inactive: endpoint: mean survival time, dose: 100.0 mg/kg/injection, schedule: Q01DX001 (ip), vehicle: saline 97 % of control | endpoint: mean survival time, dose: 200.0 mg/kg/injection, schedule: Q01DX001 (ip), vehicle: saline 95 % of control | endpoint: mean survival time, dose: 400.0 mg/kg/injection, schedule: Q01DX001 (ip), vehicle: saline 92 % of control

Nc1c(Br)cc(Br)c2c1CCC2
inactive: [11] 94 % of control | [12] 105 % of control | [13] 94 % of control

NC(=S)c1cccc(OCCOc2cccc3ccccc23)c1
inactive: endpoint: mean survival time, dose: 25.0 mg/kg/injection, schedule: Q01DX009 (ip), vehicle: saline with Tween-80 92 % of control | [10] 95 % of control | [4] 88 % of control

C=C1C(=O)O[C@@H]2[C@H]1CC[C@H](C)[C@]1(O)CCC(=O)[C@@]21C
inactive: [4] 98 % of control | [6] 101 % of control | [8] 110 % of control

O=S(=O)([O][Hg][CH2]C1Cc2ccccc2O1)[O][Hg][CH2]C1Cc2ccccc2O1 (centres undefined)
inactive: [16] 95 % of control | endpoint: mean survival time, dose: 12.5 mg/kg/injection, schedule: Q01DX009 (ip), vehicle: Klucel (hydroxypropylcellulose) (HPC) 92 % of control | endpoint: mean survival time, dose: 25.0 mg/kg/injection, schedule: Q01DX009 (ip), vehicle: Klucel (hydroxypropylcellulose) (HPC) 96 % of control | endpoint: median survival time, dose: 6.25 mg/kg/injection, schedule: Q04DX003 (ip), vehicle: saline with Tween-80 100 % of control | endpoint: median survival time, dose: 12.5 mg/kg/injection, schedule: Q04DX003 (ip), vehicle: saline with Tween-80 100 % of control | endpoint: median survival time, dose: 25.0 mg/kg/injection, schedule: Q04DX003 (ip), vehicle: saline with Tween-80 100 % of control

Cc1ccc(NC(=O)Nc2ccccc2C(N)=O)cc1
inactive: endpoint: mean survival time, dose: 100.0 mg/kg/injection, schedule: Q01DX009 (ip), vehicle: saline sonified 97 % of control | endpoint: mean survival time, dose: 200.0 mg/kg/injection, schedule: Q01DX009 (ip), vehicle: saline sonified 98 % of control | endpoint: mean survival time, dose: 400.0 mg/kg/injection, schedule: Q01DX009 (ip), vehicle: saline sonified 100 % of control

CC(C)c1ccc(C(=O)CCCCl)cc1
inactive: [4] 98 % of control | [6] 97 % of control | [8] 97 % of control

N#CCc1c(Cl)c(Cl)c(Cl)c(Cl)c1Cl
inactive: [5] 103 % of control | [7] 103 % of control | [9] 102 % of control

O=C(O)/C=C\C(=O)Nc1ccc(Cl)cc1
inactive: [4] 102 % of control | [5] 108 % of control | [6] 93 % of control | [7] 97 % of control | [8] 98 % of control | [9] 94 % of control

O=C(COc1cccc(Cl)c1)NCc1cccc(NC(=O)Nc2cccc(S(=O)(=O)F)c2)c1
inactive: endpoint: mean survival time, dose: 100.0 mg/kg/injection, schedule: Q01DX001 (ip), vehicle: saline with Tween-80 91 % of control | [14] 98 % of control | [15] 101 % of control

CCC[CH2][Sn]1([CH2]CCC)[O]C2C(CO)OC(n3ccc(N)nc3=O)C2[O]1 (centres undefined)
inactive: endpoint: mean survival time, dose: 0.78 mg/kg/injection, schedule: Q01DX009 (ip), vehicle: Klucel (hydroxypropylcellulose) (HPC) 116 % of control | endpoint: mean survival time, dose: 1.56 mg/kg/injection, schedule: Q01DX005 (ip), vehicle: other 104 % of control | endpoint: mean survival time, dose: 1.56 mg/kg/injection, schedule: Q01DX009 (ip), vehicle: Klucel (hydroxypropylcellulose) (HPC) 113 % of control | endpoint: mean survival time, dose: 3.13 mg/kg/injection, schedule: Q01DX005 (ip), vehicle: other 104 % of control | endpoint: mean survival time, dose: 6.25 mg/kg/injection, schedule: Q01DX005 (ip), vehicle: other 113 % of control | [16] 115 % of control

COc1ccccc1NC(=O)Nc1ccc(C(=O)OCC(C)C)cc1
inactive: [4] 89 % of control | [5] 92 % of control | [6] 88 % of control | [7] 88 % of control | [9] 86 % of control

Cc1ccc(NC(=O)COc2ccc(Cl)cc2Cl)cc1Cl
inactive: [5] 93 % of control | [7] 98 % of control | [9] 88 % of control
